The results in this text go back to US9546164B2 (GENENTECH, INC., priority 2013, dated 2017).

Where a name gives a salt, the structure may show the parent alone.

Chain of hNav1.7 (Q15858 other isoform, or with tags, fused parts or gaps): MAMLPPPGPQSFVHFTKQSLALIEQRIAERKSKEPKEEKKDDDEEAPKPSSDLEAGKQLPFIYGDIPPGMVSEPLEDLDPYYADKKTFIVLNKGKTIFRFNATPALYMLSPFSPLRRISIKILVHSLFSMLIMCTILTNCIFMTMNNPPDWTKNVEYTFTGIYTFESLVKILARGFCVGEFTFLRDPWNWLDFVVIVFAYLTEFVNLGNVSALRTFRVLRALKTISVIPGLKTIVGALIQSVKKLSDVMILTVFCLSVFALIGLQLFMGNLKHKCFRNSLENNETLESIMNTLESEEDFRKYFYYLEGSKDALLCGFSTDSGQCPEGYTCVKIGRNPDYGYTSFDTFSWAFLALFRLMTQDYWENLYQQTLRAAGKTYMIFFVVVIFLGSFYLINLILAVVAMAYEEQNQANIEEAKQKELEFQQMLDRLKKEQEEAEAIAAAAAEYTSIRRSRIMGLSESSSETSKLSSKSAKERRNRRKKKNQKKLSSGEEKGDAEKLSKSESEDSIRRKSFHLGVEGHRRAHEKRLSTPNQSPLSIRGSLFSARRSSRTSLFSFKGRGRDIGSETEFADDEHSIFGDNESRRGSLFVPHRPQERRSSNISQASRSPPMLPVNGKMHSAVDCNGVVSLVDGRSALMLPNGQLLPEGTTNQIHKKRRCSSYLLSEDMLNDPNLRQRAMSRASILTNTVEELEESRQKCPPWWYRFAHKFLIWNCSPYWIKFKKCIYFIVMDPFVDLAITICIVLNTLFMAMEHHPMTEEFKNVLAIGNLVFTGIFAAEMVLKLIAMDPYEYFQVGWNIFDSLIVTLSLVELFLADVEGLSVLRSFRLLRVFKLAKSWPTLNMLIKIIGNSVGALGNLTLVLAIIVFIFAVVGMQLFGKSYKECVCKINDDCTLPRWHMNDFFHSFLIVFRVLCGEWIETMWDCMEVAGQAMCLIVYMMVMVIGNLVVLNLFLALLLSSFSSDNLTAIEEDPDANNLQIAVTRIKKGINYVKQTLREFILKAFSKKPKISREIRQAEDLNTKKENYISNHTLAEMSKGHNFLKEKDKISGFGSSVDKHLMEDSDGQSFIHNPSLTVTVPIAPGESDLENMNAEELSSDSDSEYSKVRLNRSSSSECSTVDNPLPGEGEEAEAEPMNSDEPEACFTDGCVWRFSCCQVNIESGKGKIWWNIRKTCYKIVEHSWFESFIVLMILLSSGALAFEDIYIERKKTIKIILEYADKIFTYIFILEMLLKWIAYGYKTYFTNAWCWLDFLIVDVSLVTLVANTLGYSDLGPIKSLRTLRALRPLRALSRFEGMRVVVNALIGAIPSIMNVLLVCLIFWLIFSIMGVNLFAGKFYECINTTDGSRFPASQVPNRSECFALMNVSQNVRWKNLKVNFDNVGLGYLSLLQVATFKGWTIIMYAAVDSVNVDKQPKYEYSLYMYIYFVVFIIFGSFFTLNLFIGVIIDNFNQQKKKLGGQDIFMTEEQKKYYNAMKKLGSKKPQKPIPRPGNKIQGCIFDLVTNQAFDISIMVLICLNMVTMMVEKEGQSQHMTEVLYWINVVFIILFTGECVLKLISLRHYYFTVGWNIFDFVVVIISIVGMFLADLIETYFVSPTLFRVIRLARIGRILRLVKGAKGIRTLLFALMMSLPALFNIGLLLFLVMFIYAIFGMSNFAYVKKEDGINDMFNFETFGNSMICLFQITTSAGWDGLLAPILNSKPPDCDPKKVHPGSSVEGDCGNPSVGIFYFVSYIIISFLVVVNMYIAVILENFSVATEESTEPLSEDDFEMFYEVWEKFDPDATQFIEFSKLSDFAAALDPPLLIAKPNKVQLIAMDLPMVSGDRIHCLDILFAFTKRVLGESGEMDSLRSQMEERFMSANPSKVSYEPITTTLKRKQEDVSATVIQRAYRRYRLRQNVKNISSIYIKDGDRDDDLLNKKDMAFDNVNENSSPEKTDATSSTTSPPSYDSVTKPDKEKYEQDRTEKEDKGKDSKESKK
Chain of hNav1.7 (Q07699 19-218 partner): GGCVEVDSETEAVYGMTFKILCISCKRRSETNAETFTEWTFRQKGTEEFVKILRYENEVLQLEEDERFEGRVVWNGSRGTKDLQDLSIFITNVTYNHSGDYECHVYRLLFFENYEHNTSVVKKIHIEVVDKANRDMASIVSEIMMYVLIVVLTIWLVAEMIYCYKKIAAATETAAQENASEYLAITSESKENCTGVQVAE

The first assay concerns the target hNav1.7 (Homo sapiens (Human), UniProt Q15858). Briefly: Tritiated sulfonamide competitive binding to membranes from cells expressing hNav1.7 and the β1 subunit.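 Note: Filter-bound radioactivity counted by liquid scintillation, nonspecific binding defined with excess unlabelled ligand, IC50 fitted to percent inhibition of specific binding.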
Settings: not given
`O=C(NS(=O)(=O)C1CC1)c1cc(C2CC2)c(O[C@@H]2CCCN(Cc3ccc(F)cc3C(F)(F)F)C2)cc1F` [Example 35] returned an IC50 of 2.4 nM.

Still in this assay, the particulars now being: read-out: Ligand Binding Assay; 100 pM [3H]compound, membranes with hNav1.7 and β1 subunit, 18 h, room temperature.
Consider `O=C(NS(=O)(=O)C1CC1)c1cc(C2CC2)c(OCC2CCN(S(=O)(=O)c3ccccc3C(F)(F)F)CC2)cc1F` [Example 371, 5-cyclopropyl-N-(cyclopropylsulfonyl)-2-fluoro-4-((1-((2-(trifluoromethyl)phenyl)sulfonyl)piperidin-4-yl)methoxy)benzamide], for which the IC50 was determined as 20.3 nM.

Turning to `CS(=O)(=O)NC(=O)c1cc(C2CC2)c(OCC2CCN(S(=O)(=O)c3ccc(Br)c(F)c3)CC2)cc1F` [Example 368, 4-((1-((4-bromo-3-fluorophenyl)sulfonyl)piperidin-4-yl)methoxy)-5-cyclopropyl-2-fluoro-N-(methylsulfonyl)benzamide], the IC50 came out at 25.1 nM.

With `C[C@H]1CC[C@@H](Oc2cc(F)c(C(=O)NS(=O)(=O)N3CCC3)cc2C2CC2)CN1Cc1ccc(F)cc1Cl` [Example 325, N-(azetidin-1-ylsulfonyl)-4-(((3R,6S)-1-(2-chloro-4-fluorobenzyl)-6-methylpiperidin-3-yl)oxy)-5-cyclopropyl-2-fluorobenzamide], the IC50 was found to be 2.4 nM.

Turning to `O=C(NS(=O)(=O)N1CCC1)c1cc(C2CC2)c(O[C@H]2CCN(Cc3ccccc3)C2)cc1F` [Example 45, (S)—N-(azetidin-1-ylsulfonyl)-4-((1-benzylyprrolidin-3-yl)oxy)-5-cyclopropyl-2-fluorobenzamide], the IC50 is 4580 nM. Still for that read-out and setting: the value for `C[C@@H](c1ccc(F)cc1Cl)N1CCC(COc2cc(F)c(C(=O)NS(C)(=O)=O)cc2C2CC2)CC1` [Example 243] was 11 nM; that for `Cn1nc(C(F)(F)F)c(CN2CCC(COc3cc(F)c(C(=O)NS(=O)(=O)C4CC4)cc3C3CC3)CC2)c1Cl` [Example 357, 4-((1-((5-chloro-1-methyl-3-(trifluoromethyl)-1H-pyrazol-4-yl)methyl)piperidin-4-yl)methoxy)-5-cyclopropyl-N-(cyclopropylsulfonyl)-2-fluorobenzamide, trifluoroacetic acid salt] was 13 nM; that for `CCOc1ccc(CN2CCC[C@@H](Oc3cc(F)c(C(=O)NS(C)(=O)=O)cc3C3CC3)C2)c(OCC)c1` [Example 428, (R)-5-cyclopropyl-4-((1-(2,4-diethoxybenzyl)piperidin-3-yl)oxy)-2-fluoro-N-(methylsulfonyl)benzamide, trifluoroacetic acid salt] was 23.4 nM.

Consider `CS(=O)(=O)NC(=O)c1cc(C2CC2)c(OCC2CN(Cc3cc(F)cc(Cl)c3)C2)cc1F` [Example 75, 4-((1-(3-chloro-5-fluorobenzyl)azetidin-3-yl)methoxy)-5-cyclopropyl-2-fluoro-N-(methylsulfonyl)benzamide], for which the IC50 worked out at 74 nM. On the same count and under the same terms, the same measure for `COC[C@@H](c1ccc(Cl)cc1Cl)N1CCC(COc2cc(F)c(C(=O)NS(C)(=O)=O)cc2C2CC2)CC1` [Example 283, (R)-5-cyclopropyl-4-((1-(1-(2,4-dichlorophenyl)-2-methoxyethyl)piperidin-4-yl)methoxy)-2-fluoro-N-(methylsulfonyl)benzamide]: 4 nM; for `CC(C)Oc1ncc([C@@H](c2ccccc2)N2CC(COc3cc(F)c(C(=O)NS(C)(=O)=O)cc3C3CC3)C2)cc1Cl` [Example 115, (R)-4-((1-((5-Chloro-6-isopropoxypyridin-3-yl)(phenyl)methyl)azetidin-3-yl)methoxy)-5-cyclopropyl-2-fluoro-N-(methylsulfonyl)benzamide]: 4.2 nM. Still for that read-out and setting: the value for `O=C(NS(=O)(=O)C1CC1)c1cc(C2CC2)c(OCC2CCN(C(c3cccc(Cl)c3)c3cccc(Cl)c3)CC2)cc1F` [Example 401, 4-((1-(bis(3-chlorophenyl)methyl)piperidin-4-yl)methoxy)-5-cyclopropyl-N-(cyclopropylsulfonyl)-2-fluorobenzamide, trifluoroacetic acid salt] was 3.1 nM. On the same count and under the same terms, the value for `CC1(C)CO[C@H](Cc2cc(Cl)cc(Cl)c2)CN1Cc1cc(F)c(C(=O)NS(C)(=O)=O)cc1C1CC1` [Example 469, (R)-5-cyclopropyl-4-((2-(3,5-dichlorobenzyl)-5,5-dimethylmorpholino)methyl)-2-fluoro-N-(methylsulfonyl)benzamide, trifluoroacetic acid salt] was 98.9 nM; that for `CS(=O)(=O)NC(=O)c1cc(C2CC2)c(OCC2CN(Cc3cc(Cl)cc(Cl)c3)C2)cc1F` [Example 132, 5-Cyclopropyl-4-((1-(3,5-dichlorobenzyl)azetidin-3-yl)methoxy)-2-fluoro-N-(methylsulfonyl)benzamide] was 14 nM; that for `O=C(NS(=O)(=O)N1CCC1)c1cc(C2CC2)c(OCC2CC3CCC(C2)N3Cc2ccccc2)cc1F` (centres unmarked) [Example 48, N-(azetidin-1-ylsulfonyl)-4-((8-benzyl-8-azabicyclo[3.2.1]octan-3-yl)methoxy)-5-cyclopropyl-2-fluorobenzamide] was 2820 nM. Consider `CS(=O)(=O)NC(=O)c1cc(C2CC2)c(OCC2CCN(c3ccccc3)CC2)cc1F` [Example 79, 5-cyclopropyl-2-fluoro-N-(methylsulfonyl)-4-((1-phenylpiperidin-4-yl)methoxy)benzamide], for which the IC50 came out at 9.9 nM. For `CS(=O)(=O)NC(=O)c1cc(C2CC2)c(OCC2CCN(Cc3cc(Cl)cc(Cl)c3)CC2)cc1F` [Example 139, 5-Cyclopropyl-4-((1-(3,5-dichlorobenzyl)piperidin-4-yl)methoxy)-2-fluoro-N-(methylsulfonyl)benzamide], the IC50 was 4.9 nM. Still for that read-out and setting: the same measure for `O=C(NS(=O)(=O)C1CC1)c1cc(C2CC2)c(OCC2CCN(C(=O)c3ccccc3C(F)(F)F)CC2)cc1F` [Example 256, 5-Cyclopropyl-N-(cyclopropylsulfonyl)-2-fluoro-4-((1-(2-(trifluoromethyl)benzoyl)piperidin-4-yl)methoxy)benzamide]: 290 nM; for `CCS(=O)(=O)NC(=O)c1cc(C2CC2)c(OCC2(C)CN([C@H](C)c3cc(Cl)cc(Cl)c3)C2)cc1F` (single isomer, unassigned) [Example 288]: 3.5 nM; for `O=C(NS(=O)(=O)N1CCC1)c1cc(C2CC2)c(CN2CCC[C@@H](Oc3cc(Cl)cc(Cl)c3)C2)cc1F` [Example 56, (R)—N-(azetidin-1-ylsulfonyl)-5-cyclopropyl-4-((3-(3,5-dichlorophenoxy)piperidin-1-yl)methyl)-2-fluorobenzamide]: 63.5 nM. Still for that read-out and setting: the value for `O=C(NS(=O)(=O)C1CC1)c1cc(C2CC2)c(CN2CCC[C@@H](Oc3cc(Cl)cc(Cl)c3)C2)cc1F` [Example 55, (R)-5-cyclopropyl-N-(cyclopropylsulfonyl)-4-((3-(3,5-dichlorophenoxy)piperidin-1-yl)methyl)-2-fluorobenzamide] was 23.3 nM. Same read-out and setting: the same measure for `CCS(=O)(=O)NC(=O)c1cc(C2CC2)c(OCC2CCN([C@H](c3cc(Cl)cc(Cl)c3)C(C)(C)OC)CC2)cc1F` (single isomer, unassigned) [Example 207]: 1.7 nM; for `CS(=O)(=O)NC(=O)c1cc(C2CC2)c(OCC2CN([C@@H](c3ccccc3)c3ccc(OC(F)(F)F)cc3)C2)cc1F` [Example 112, (S)-5-Cyclopropyl-2-fluoro-N-(methylsulfonyl)-4-((1-(phenyl(4-(trifluoromethoxy)phenyl)methyl)azetidin-3-yl)methoxy)benzamide]: 3.35 nM.
